Laboratory results as given in ChEMBL document CHEMBL1201862, “PubChem BioAssay data set” (2004).
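Tested at 5 concentrations; 48 h exposure; 96-well plates; endpoints linearly interpolated, else capped at highest concentration. Abbreviation: GI50, concentration required for 50% inhibition of growth.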 Calls of active or inactive are those of the source. Rule as the data show it: active = GI50 up to about 1.1 µM and inactive = higher.

Key:
Experiment in all cases: NCI anticancer screen, dose series, 48 h
IGROV-1 = test system: IGROV-1
NCI-H23 = test system: NCI-H23
KM-20L2 = test system: KM-20L2
TK-10 = test system: TK-10
SNB-19 = test system: SNB-19
OVCAR-3 = test system: OVCAR-3
M19-MEL = test system: M19-MEL
A498 = test system: A498
UACC-257 = test system: UACC-257
LOX IMVI = test system: LOX IMVI
SN12C = test system: SN12C
NCI-H522 = test system: NCI-H522
KM12 = test system: KM12
SNB-78 = test system: SNB-78
CAKI-1 = test system: CAKI-1
HCT-116 = test system: HCT-116
ACHN = test system: ACHN
OVCAR-5 = test system: OVCAR-5

Measured: GI50

COc1ccc(C(=O)Nc2ccccc2)cc1[N+](=O)[O-]
inactive: IGROV-1 > 100 µM | NCI-H23 > 100 µM | KM-20L2 > 100 µM | TK-10 > 100 µM | SNB-19 > 100 µM | OVCAR-3 58.9 µM | M19-MEL > 100 µM | A498 > 100 µM | UACC-257 > 100 µM | LOX IMVI > 100 µM | SN12C > 100 µM | NCI-H522 87.9 µM | KM12 89.7 µM | SNB-78 > 100 µM | CAKI-1 > 100 µM

Cc1cc(O)cc2c1O[C@@]1(C)CCC3[C@@]4(C)CC[C@H](O)C(C)(C)C4CC[C@@]3(C)[C@H]1C2 (stereo not given in full)
inactive: IGROV-1 13.5 µM | NCI-H23 10 µM | TK-10 12.5 µM | OVCAR-3 6.31 µM | M19-MEL 11 µM | A498 19.6 µM | UACC-257 12.9 µM | HCT-116 4.31 µM | LOX IMVI 6.07 µM | SN12C 11.6 µM | NCI-H522 6.52 µM | KM12 4.31 µM | SNB-78 5.98 µM | ACHN 5.24 µM | CAKI-1 6.81 µM

N#CSCc1nc2ccc(Cl)cc2c(-c2ccccc2)[n+]1[O-]
inactive: IGROV-1 > 10 µM | KM-20L2 16.6 µM | TK-10 > 100 µM | SNB-19 41.6 µM | OVCAR-3 26.8 µM | M19-MEL 31.8 µM | A498 > 100 µM | UACC-257 42.3 µM | HCT-116 19.7 µM | LOX IMVI 18 µM | OVCAR-5 21 µM | SN12C 20 µM | KM12 22 µM | SNB-78 36.9 µM | ACHN 16.9 µM | CAKI-1 25.8 µM

O=C(CC1(O)C(=O)Nc2ccccc21)c1ccncc1 (stereo not given)
inactive: IGROV-1 > 100 µM | NCI-H23 > 100 µM | KM-20L2 > 100 µM | SNB-19 > 100 µM | M19-MEL > 100 µM | A498 > 100 µM | HCT-116 > 100 µM | LOX IMVI > 100 µM | OVCAR-5 > 100 µM | SN12C > 100 µM | NCI-H522 > 100 µM | SNB-78 > 100 µM | ACHN > 100 µM | CAKI-1 > 100 µM

COC(=O)CC(=O)OC
inactive: IGROV-1 > 100 µM | NCI-H23 > 100 µM | KM-20L2 > 100 µM | TK-10 > 100 µM | SNB-19 > 100 µM | OVCAR-3 > 100 µM | M19-MEL > 100 µM | A498 > 100 µM | UACC-257 > 100 µM | HCT-116 > 100 µM | LOX IMVI > 100 µM | OVCAR-5 > 100 µM | SN12C > 100 µM | KM12 > 100 µM | SNB-78 > 100 µM | ACHN > 100 µM | CAKI-1 > 100 µM

CCOC(=O)c1[nH]c2c(OC)n[n+]([O-])cc2c1[N+](=O)[O-]
inactive: IGROV-1 54.8 µM | NCI-H23 10 µM | KM-20L2 15.5 µM | TK-10 16.4 µM | SNB-19 25.6 µM | OVCAR-3 20.6 µM | M19-MEL 24.8 µM | A498 21.8 µM | UACC-257 19 µM | HCT-116 19 µM | LOX IMVI 16.4 µM | OVCAR-5 19.6 µM | SN12C 20.4 µM | NCI-H522 19.3 µM | KM12 15 µM | SNB-78 19.8 µM | ACHN 17.3 µM

CCc1cccc(NC(=O)c2cc(/C=C/c3ccccc3)nc(S)n2)c1
inactive: IGROV-1 > 100 µM | NCI-H23 > 100 µM | KM-20L2 > 100 µM | TK-10 > 100 µM | SNB-19 > 100 µM | OVCAR-3 > 100 µM | M19-MEL > 100 µM | A498 > 100 µM | UACC-257 > 100 µM | HCT-116 > 100 µM | OVCAR-5 > 100 µM | SN12C > 100 µM | NCI-H522 > 100 µM | KM12 > 100 µM | SNB-78 > 100 µM | ACHN > 100 µM

O=C1[C@@H]2C(c3cccc([N+](=O)[O-])c3)=NO[C@@H]2C(=O)N1c1ccc(Cc2ccc(N3C(=O)[C@H]4C(c5cccc([N+](=O)[O-])c5)=NO[C@H]4C3=O)cc2)cc1
inactive: IGROV-1 > 100 µM | KM-20L2 > 100 µM | TK-10 > 100 µM | OVCAR-3 > 100 µM | M19-MEL > 100 µM | UACC-257 > 100 µM | HCT-116 > 100 µM | LOX IMVI > 10 µM | OVCAR-5 > 100 µM | SN12C > 100 µM | NCI-H522 > 100 µM | KM12 > 10 µM | SNB-78 > 100 µM | ACHN > 100 µM | CAKI-1 > 100 µM

Cc1ccc(S(=O)(=O)N/N=C2\CCCCC23CCC(=O)NC3)cc1 (stereo not given)
inactive: IGROV-1 > 100 µM | KM-20L2 > 100 µM | TK-10 > 100 µM | SNB-19 > 100 µM | OVCAR-3 > 100 µM | M19-MEL > 100 µM | A498 > 100 µM | UACC-257 > 100 µM | HCT-116 > 100 µM | SN12C > 100 µM | NCI-H522 > 100 µM | KM12 > 100 µM | SNB-78 > 100 µM | ACHN > 100 µM | CAKI-1 > 100 µM
